In patent US9771336B2, “Tetrazole based corrosion inhibitors” (Ecolab USA Inc., priority 2013, dated 2017):
Read-outs that look alike come from different tables or passages of the source. Each block holds one compound with its values, some of them ahead of it.

Legend:
[1] = Copper corrosion rate with and without bleach in a cooling water environment
[2] = test system: Pimephales promelas; assay: Pimephales promelas 96-Hour Definitive Toxicity Test; type: in vivo; details: 96-hour test
Experimental: (§1) A composition of the invention including a BDTZ tetrazole component was evaluated using the Pimephales promelas 96-Hour Definitive Toxicity Test. Pimephales promelas used to initiate this test were obtained from in-house cultures and were 1 to 14 days old at test initiation. Test organisms were maintained in 100 percent control water (reconstituted moderately hard water) prior to test initiation. The 96-Hour Definitive Test was conducted using 300 to 500 milliliter (mL) disposable polypropylene containers containing 250 ml of control water or appropriate test solution. Ten test organisms were randomly introduced into each test chamber with two replicate chambers per treatment. Each Pimephales promelas test chamber was fed 0.1 mL of a concentrated suspension of less than 24-hour old live brine shrimp nauplii (Artemia sp.) several hours prior to the 48-hour testing period.
(§2) At the 48-hour testing period, test solutions were renewed by replacing approximately 90 percent of the old solution with fresh control water or appropriate test solution. Prior to renewal of test solutions, uneaten and dead brine shrimp, along with other debris, were removed from the bottom of the test chambers. Organism survival was determined daily by enumerating live Pimephales promelas in each test chamber. Survival was defined as any body movement after gentle prodding.
(§3) The test was conducted at a temperature of 20±1° C. under fluorescent lighting with a photoperiod of 16 hours light and 8 hours dark. Water quality measurements were performed on all control and test solutions prior to test initiation and on selected treatments daily thereafter.
(§4) Following termination of the 96-Hour Definitive Test, No Observed Effect Concentration (NOEC) and a 96-hour LC50 with corresponding 95 percent confidence interval were calculated, where possible. The NOEC value was determined using the statistically appropriate method. The LC50 value estimate was determined by using one of the following statistical methods: graphical, Spearman-Karber, Trimmed Spearman-Karber, or Probit. The method selected for reporting test results was determined by the characteristics of the data; that is, the presence or absence of 0 and 100 percent mortality and the number of concentrations in which mortalities between 0 and 100 percent occurred. All statistical analyses were performed using the CETIS™ Version 1.8.5.4 software program.
(§5) The reference toxicant, sodium chloride, was used to monitor the sensitivity of the test organisms and the precision of the testing procedure. Acute reference toxicant tests are performed at least monthly and the resulting LC50 values are plotted to determine if the results are within prescribed limits.

[3] = as above; type: in vivo; details: Pimephales promelas, in vivo, other: waterborne exposure in test solution; composition of BDTZ
Experimental: as §1, §2, §3, §4, §5

[4] = Solubility (turbidity) of 2% solutions at various pH; type: physicochemical; details: 2% solution in RO water
[5] = Mild steel corrosion rate (interaction with Cu2+); details: FIG. 12; compared with no HDTZ
Text: Tetrazoles disclosed herein have a positive effect on mild steel corrosion. […] The proposed mechanism of action is suspected to be indirect: the likely interpretation is that HDTZ inactivates Cu^2+ in solution preventing the occurrence of galvanic cells on the coupon surface (lower corrosion rate), which could grow with time (stabilization of the corrosion rate).

[6] = 3 ppm inhibitor, synthetic cooling water, 38° C., three hours
[7] = average copper corrosion rate, inhibitor concentration 5 ppm, with bleach
[8] = average copper corrosion rate, inhibitor concentration 5 ppm, without bleach

Compound: CCCCc1ccc2[nH]nnc2c1 [BBT, 5-butyl-1H-benzotriazole, reference compound]
- Corrosion Rate (mpy) with Bleach (1 FRC) [1, 7]: 0.0189 mpy
- Corrosion Rate (mpy) without Bleach [1, 8]: 0.0024 mpy

Compound: C(CCc1nnn[nH]1)Cc1nnn[nH]1 [BDTZ, 1,4-di(1H-tetrazol-5-yl)butane]
- Survival (%) ([2]; composition of BDTZ, 625 mg/L as nominal): 100%
- Survival (%) ([2]; composition of BDTZ, 1,250 mg/L as nominal): 100%
- Survival (%) ([2]; composition of BDTZ, 2,500 mg/L as nominal): 100%
- Survival (%) ([2]; composition of BDTZ, 5,000 mg/L as nominal): 100%
- Survival (%) ([2]; composition of BDTZ, 10,000 mg/L as nominal): 100%
- NOEC ([2]; composition of BDTZ): 10,000 mg/L
- LC50 at 96 h [3]: > 10000 µg/mL
- pH above which the solution remained clear ([4]; turbidity meter): > 5.6
- Corrosion Rate (mpy) with Bleach (1 FRC) [1, 7]: 0.0841 mpy
- Corrosion Rate (mpy) without Bleach [1, 8]: 0.0088 mpy

Compound: c1ccc2[nH]nnc2c1 [BZT, 1H-benzotriazole, reference compound]
- Corrosion Rate (mpy) with Bleach (1 FRC) [1, 7]: 0.1386 mpy
- Corrosion Rate (mpy) without Bleach [1, 8]: 0.0032 mpy

Compound: Cc1cc2nn[nH]c2cc1Cl [CITT, 5-methyl-6-chloro-1H-benzotriazole, reference compound]
- Corrosion Rate (mpy) with Bleach (1 FRC) [1, 7]: 0.0057 mpy
- Corrosion Rate (mpy) without Bleach [1, 8]: 0.0028 mpy

- melting point: 183.75 °C
Compound: C(CCCc1nnn[nH]1)CCc1nnn[nH]1 [HDTZ, 1,6-di(1H-tetrazol-5-yl)hexane]
- effect on mild steel corrosion rate [5]: stabilize the corrosion rate
- Corrosion Rate (mpy) with Bleach (1 FRC) [1, 7]: 0.0204 mpy
- Corrosion Rate (mpy) without Bleach [1, 8]: 0.005 mpy

- melting point: 144.19 °C
Compound: C(CCCc1nnn[nH]1)CCCc1nnn[nH]1 [HeDTZ, 1,7-di(1H-tetrazol-5-yl)heptane]
- Corrosion Rate (mpy) with Bleach (1 FRC) [1, 7]: 0.027 mpy
- Corrosion Rate (mpy) without Bleach [1, 8]: 0.009 mpy

Compound: C(CCCCc1nnn[nH]1)CCCc1nnn[nH]1 [ODTZ, 1,8-di(1H-tetrazol-5-yl)octane]
- % loss of inhibitor ([6]; 1 ppm ActiBrom): 0.0%
- % loss of inhibitor ([6]; 1 ppm Bleach): 2.6%
- % loss of inhibitor ([6]; 1 ppm STABREX): 1.6%
- % loss of inhibitor ([6]; 5 ppm ActiBrom): 1.3%
- % loss of inhibitor ([6]; 5 ppm Bleach): 2.6%
- % loss of inhibitor ([6]; 5 ppm STABREX): 2.6%
- Corrosion Rate (mpy) with Bleach (1 FRC) [1]: 0.032 mpy
- Corrosion Rate (mpy) without Bleach [1]: 0.026 mpy

Compound: C(CCc1nnn[nH]1)CCc1nnn[nH]1 [PeDTZ, 1,5-di(1H-tetrazol-5-yl)pentane]
- Corrosion Rate (mpy) with Bleach (1 FRC) [1]: 0.145 mpy
- Corrosion Rate (mpy) without Bleach [1]: 0.0012 mpy

Compound: Cc1ccc2[nH]nnc2c1 [TT, 5-methyl-1H-benzotriazole, reference compound]
- pH above which soluble [4]: above 11.5
- pH to get a clear solution [4]: 12.0
- Corrosion Rate (mpy) with Bleach (1 FRC) [1, 7]: 0.0995 mpy
- Corrosion Rate (mpy) without Bleach [1, 8]: 0.0214 mpy

Compound: hydrogenated tolyltriazole [HTT, reference compound]
- Corrosion Rate (mpy) with Bleach (1 FRC) [1, 7]: 0.0187 mpy
- Corrosion Rate (mpy) without Bleach [1, 8]: 0.0051 mpy
